# PubChem BioAssay (NCI)
#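 Method: 48-hour compound exposure of cells in 96-well plates, five concentrations, linear interpolation of endpoints. The concentration for 50% growth inhibition is given as GI50. Definition used: TGI = concentration required for complete inhibition of growth.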
# Columns and labels:
# Assay in all cases: inhibition of tumour cell growth, NCI panel, 48 h
# HS 578T breast = test system: HS 578T breast
# HL-60(TB) leukemia = test system: HL-60(TB) leukemia
# NCI/ADR-RES ovarian = test system: NCI/ADR-RES ovarian
# NCI-H226 lung = test system: NCI-H226 lung
# CAKI-1 renal = test system: CAKI-1 renal
# LOX IMVI melanoma = test system: LOX IMVI melanoma
# DU-145 prostate = test system: DU-145 prostate
# COLO 205 colon = test system: COLO 205 colon
# T-47D breast = test system: T-47D breast
# SK-MEL-5 melanoma = test system: SK-MEL-5 melanoma
# SNB-75 CNS = test system: SNB-75 CNS
# A498 renal = test system: A498 renal
# HCC-2998 colon = test system: HCC-2998 colon
# SK-OV-3 ovarian = test system: SK-OV-3 ovarian
# OVCAR-8 ovarian = test system: OVCAR-8 ovarian
# K-562 leukemia = test system: K-562 leukemia
# MCF7 breast = test system: MCF7 breast
# ACHN renal = test system: ACHN renal
# SK-MEL-2 melanoma = test system: SK-MEL-2 melanoma
# OVCAR-5 ovarian = test system: OVCAR-5 ovarian
# HCT-116 colon = test system: HCT-116 colon
# CCRF-CEM leukemia = test system: CCRF-CEM leukemia
# U251 CNS = test system: U251 CNS
# SNB-19 CNS = test system: SNB-19 CNS
# A549 NSCLC = test system: A549 NSCLC
# MOLT-4 leukemia = test system: MOLT-4 leukemia
# HCT-15 colon = test system: HCT-15 colon
# SF-539 CNS = test system: SF-539 CNS
# OVCAR-4 ovarian = test system: OVCAR-4 ovarian
# MDA-MB-435 = test system: MDA-MB-435
# MALME-3M melanoma = test system: MALME-3M melanoma
# UACC-257 melanoma = test system: UACC-257 melanoma
# SF-268 CNS = test system: SF-268 CNS
# BT-549 breast = test system: BT-549 breast
# RXF 393 renal = test system: RXF 393 renal
# SN12C renal = test system: SN12C renal
# TK-10 renal = test system: TK-10 renal
# SK-MEL-28 melanoma = test system: SK-MEL-28 melanoma
# SW-620 colon = test system: SW-620 colon
# M14 melanoma = test system: M14 melanoma
# NCI-H460 lung = test system: NCI-H460 lung
# IGROV1 ovarian = test system: IGROV1 ovarian
# SR leukemia = test system: SR leukemia
# RPMI-8226 leukemia = test system: RPMI-8226 leukemia
# UO-31 renal = test system: UO-31 renal
# 786-0 renal = test system: 786-0 renal
# NCI-H522 lung = test system: NCI-H522 lung
# KM12 colon = test system: KM12 colon
# OVCAR-3 ovarian = test system: OVCAR-3 ovarian
# MDA-MB-231 breast = test system: MDA-MB-231 breast
# HOP-62 NSCLC = test system: HOP-62 NSCLC
# HOP-92 NSCLC = test system: HOP-92 NSCLC
# HT29 colon = test system: HT29 colon
# SF-295 CNS = test system: SF-295 CNS
smiles,measurement,setting,value
c1ccc2c(c1)O[As](O[As]1Oc3ccccc3O1)O2,GI50,HS 578T breast,3.47 µM
same,TGI,HS 578T breast,65.9 µM
same,GI50,HL-60(TB) leukemia,1.49 µM
same,TGI,HL-60(TB) leukemia,3.92 µM
same,GI50,NCI/ADR-RES ovarian,3.58 µM
same,TGI,NCI/ADR-RES ovarian,> 100 µM
same,GI50,NCI-H226 lung,3.61 µM
same,TGI,NCI-H226 lung,19.7 µM
same,GI50,CAKI-1 renal,2.56 µM
same,TGI,CAKI-1 renal,8.54 µM
same,GI50,LOX IMVI melanoma,2.3 µM
same,TGI,LOX IMVI melanoma,10.3 µM
same,GI50,DU-145 prostate,3.96 µM
same,TGI,DU-145 prostate,15.2 µM
same,GI50,COLO 205 colon,5.42 µM
same,TGI,COLO 205 colon,20.2 µM
same,GI50,T-47D breast,1.69 µM
same,TGI,T-47D breast,14.6 µM
same,GI50,SK-MEL-5 melanoma,1.55 µM
same,TGI,SK-MEL-5 melanoma,3.69 µM
same,GI50,SNB-75 CNS,1.87 µM
same,TGI,SNB-75 CNS,12 µM
same,GI50,A498 renal,1.6 µM
same,TGI,A498 renal,5.64 µM
same,GI50,HCC-2998 colon,4.96 µM
same,TGI,HCC-2998 colon,18.4 µM
same,GI50,SK-OV-3 ovarian,11.7 µM
same,TGI,SK-OV-3 ovarian,26 µM
same,GI50,OVCAR-8 ovarian,2.59 µM
same,TGI,OVCAR-8 ovarian,15.4 µM
same,GI50,K-562 leukemia,1.66 µM
same,TGI,K-562 leukemia,7.28 µM
same,GI50,MCF7 breast,1.86 µM
same,TGI,MCF7 breast,13.2 µM
same,GI50,ACHN renal,6.47 µM
same,TGI,ACHN renal,21.4 µM
same,GI50,SK-MEL-2 melanoma,2.76 µM
same,TGI,SK-MEL-2 melanoma,8.61 µM
same,GI50,OVCAR-5 ovarian,5.01 µM
same,TGI,OVCAR-5 ovarian,22.2 µM
same,GI50,HCT-116 colon,3.17 µM
same,TGI,HCT-116 colon,14.1 µM
same,GI50,CCRF-CEM leukemia,0.434 µM
same,TGI,CCRF-CEM leukemia,10.8 µM
same,GI50,U251 CNS,1.35 µM
same,TGI,U251 CNS,4.43 µM
same,GI50,SNB-19 CNS,5.56 µM
same,TGI,SNB-19 CNS,19.6 µM
same,GI50,A549 NSCLC,12 µM
same,TGI,A549 NSCLC,47.8 µM
same,GI50,MOLT-4 leukemia,2.45 µM
same,TGI,MOLT-4 leukemia,7.21 µM
same,GI50,HCT-15 colon,2.33 µM
same,TGI,HCT-15 colon,17 µM
same,GI50,SF-539 CNS,1.84 µM
same,TGI,SF-539 CNS,6.27 µM
same,GI50,OVCAR-4 ovarian,2.49 µM
same,TGI,OVCAR-4 ovarian,19.7 µM
same,GI50,MDA-MB-435,2.8 µM
same,TGI,MDA-MB-435,13.9 µM
same,GI50,MALME-3M melanoma,2.32 µM
same,TGI,MALME-3M melanoma,5.21 µM
same,GI50,UACC-257 melanoma,2.07 µM
same,TGI,UACC-257 melanoma,9.88 µM
same,GI50,SF-268 CNS,2.47 µM
same,TGI,SF-268 CNS,12.1 µM
same,GI50,BT-549 breast,1.22 µM
same,TGI,BT-549 breast,6.55 µM
same,GI50,RXF 393 renal,1.64 µM
same,TGI,RXF 393 renal,13 µM
same,GI50,SN12C renal,3.02 µM
same,TGI,SN12C renal,14.9 µM
same,GI50,TK-10 renal,4.75 µM
same,TGI,TK-10 renal,13.3 µM
same,GI50,SK-MEL-28 melanoma,3.04 µM
same,TGI,SK-MEL-28 melanoma,15.1 µM
same,GI50,SW-620 colon,3.01 µM
same,TGI,SW-620 colon,14.8 µM
same,GI50,M14 melanoma,3.18 µM
same,TGI,M14 melanoma,15.3 µM
same,GI50,NCI-H460 lung,4.43 µM
same,TGI,NCI-H460 lung,23.6 µM
same,GI50,IGROV1 ovarian,1.56 µM
same,TGI,IGROV1 ovarian,10.5 µM
same,GI50,SR leukemia,1.61 µM
same,TGI,SR leukemia,7.39 µM
same,GI50,RPMI-8226 leukemia,1.07 µM
same,TGI,RPMI-8226 leukemia,4.61 µM
same,GI50,UO-31 renal,1.97 µM
same,TGI,UO-31 renal,11.3 µM
same,GI50,786-0 renal,3.66 µM
same,TGI,786-0 renal,15.4 µM
same,GI50,NCI-H522 lung,0.548 µM
same,TGI,NCI-H522 lung,2.06 µM
same,GI50,KM12 colon,7.79 µM
same,TGI,KM12 colon,20.6 µM
same,GI50,OVCAR-3 ovarian,2.35 µM
same,TGI,OVCAR-3 ovarian,7.41 µM
same,GI50,MDA-MB-231 breast,2.11 µM
same,TGI,MDA-MB-231 breast,10.7 µM
same,GI50,HOP-62 NSCLC,3.62 µM
same,TGI,HOP-62 NSCLC,14.2 µM
same,GI50,HOP-92 NSCLC,0.86 µM
same,TGI,HOP-92 NSCLC,5.31 µM
same,GI50,HT29 colon,2.75 µM
same,TGI,HT29 colon,8.74 µM
same,GI50,SF-295 CNS,6.48 µM
same,TGI,SF-295 CNS,22.9 µM
